Experimental data taken from EP4741395A1, “NOVEL COMPOUND SENSITIVE TO NITROGEN MONOXIDE AND PHARMACEUTICAL COMPOSITION COMPRISING SAME” (Omniamed Co. Ltd, priority 2023, dated 2025).
“Also recorded” adds a separate entry of the source.

What was measured:
IL-6 (Interleukin-6) = experiment: Inhibition of inflammatory cytokine secretion in LPS-treated immune cells (IL-6 sandwich ELISA); assay type: cell-based; details: Mus musculus, RAW264.7, Raw 264.7, LPS 500 ng/mL, 24 hours, read-out: IL-6 Reduction Activity (%) (Mean±SD)
Method: Raw 264.7 cell line was seeded in a 48-well plate at a density of 8×10^4 cells/well, and cultured at 37°C in a DMEM medium including 10% FBS, 100 U/mL of penicillin and 100 µg/mL of streptomycin.
The medium was cultured overnight, and then replaced with a fresh medium including 10 µM of the pharmaceutical composition sensitive to nitrogen monoxide including the compound of each of Examples 1 and 11 to 13 and 500 ng/mL of LPS, and the fresh medium was cultured again for another 24 hours.
Lastly, the supernatant was collected, and then the level of IL-6 (Interleukin-6) expression was analyzed using a Sandwich enzyme-linked immunosorbent assay (ELISA). Specifically, a standard solution and 50 µL of the diluted supernatant were introduced to each well of a well plate coated with an antibody specific to IL-6, and after binding IL-6 to the immobilized antibody, the well was washed with a washing buffer, followed by a reaction with HRP as a secondary antibody for 30 minutes at room temperature. The well was washed three times with a washing buffer, then color was developed using TMB (3,3', 5,5'-tetramethyl benzidine) as a substrate, and the reaction was stopped using 1 M sulfuric acid to measure the degree of color development at an absorbance of 450 nm.

splenocytes = experiment: NO scavenging activity in Concanavalin A-treated splenocytes (Griess assay); assay type: cell-based, C57BL/6 mouse; details: Mus musculus, Splenocyte, Concanavalin A 5 µg/mL, 72 hours, read-out: NO Scavenging Activity (%) (Mean±SD)
Procedure, shortened: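 Splenocytes from 8-week-old C57BL/6 mice at 5×10^6 cells/mL in RPMI 1640/10% FBS, stimulated with Concanavalin A (5 µg/mL) plus […] test composition added at plating. After 72 h culture, remaining NO in supernatant measured by Griess assay.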

IFN-γ = IFN-γ reduction activity in Concanavalin A-treated splenocytes (quantitative ELISA); assay type: cell-based, C57BL/6 mouse; details: Mus musculus, Splenocyte, Concanavalin A 5 µg/mL, 72 hours, read-out: IFN-γ Reduction Activity (%) (Mean±SD)
Procedure, shortened: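 Splenocytes from 8-week-old C57BL/6 mice at 5×10^6 cells/mL in RPMI 1640 with 10% FBS, stimulated with Concanavalin A (5 µg/mL) plus compound added concentration-dependently. Supernatant IFN-γ measured by quantitative ELISA after 72 h.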

in vivo = experiment: in vivo
Method: Specifically, the experimental animals were twelve six-week-old C57BL/6 male mice. The experimental animals were housed in polycarbonate cages in groups of four, and had free access to food and water. The animal housing room was maintained at a temperature of 20±1°C and humidity of about 50±5%, with a constant 12-hour light/dark cycle. The experimental animals were acclimated to the animal room environment for one week, and then randomly divided into three groups of four animals each based on body weight.

[1] = Efficacy on DSS induced ulcerative colitis (disease activity index); assay type: in vivo, mice
Method: In order to establish an ulcerative colitis model, 2.5% DSS powder was mixed with drinking water and provided ad libitum. The DSS powder-containing drinking water was supplied for 5 to 6 days of disease induction period, and after that, normal drinking water was supplied.
The administered compounds of Table 21 were administered orally once daily. Hematochezia, diarrhea and body weight loss were scored according to the criteria shown in the following Table 22, and the scores were summed to calculate a disease activity index (DAI), which is shown in FIG. 4.
Efficacy of Compound (4) on ulcerative colitis was verified in the same manner as in Experimental Example 10-1, except that Compound (4) was used instead of Compound (1), and DSS was administered until day 5, and the drug was administered from day 6.

[2] = Hematological toxicity evaluation after single oral administration (routine blood test); details: single oral dose 200 mg/kg and 800 mg/kg, compared with the normal group

## C[C@@H]1CCN(C(=O)CC#N)C[C@@H]1N(C)c1ncnc2c1ccn2C(=O)Nc1ccccc1N [Example 1, N-(2-aminophenyl)-4-(((3R,4R)-1-(2-cyanoacetyl)-4-methylpiperidin-3-yl) (methyl)amino)-7H-pyrrolo[2,3-d]pyrimidine-7-carboxamide]
IL-6 (Interleukin-6)
  activity at 10 µM: 93.6 ± 0.6%
splenocytes
  activity at 10 µM: 98.1 ± 0.09%
IFN-γ
  activity at 10 µM: 91.5 ± 1.37%
In vivo; male, mouse, in vivo, po
  MTD at 4 days: 1600 mg/kg
In vivo; mice, oral once daily, 200, 400, 800, 1,600 mg/kg escalated daily
  mortality: no mortality was observed
[1]; 25 mg/kg oral once daily from day 3, day 7 of the test, p<0.01, FIG. 4
  efficacy on disease activity index (DAI): statistically significant efficacy was observed
[1]; 25 mg/kg oral once daily, FIGS. 4 and 5
  efficacy in alleviating ulcerative colitis compared to tofacitinib: comparable to that of tofacitinib on average; also recorded: comparable or more superior efficacy
[2]
  hematological toxicity responses: No hematological toxicity responses were observed
